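Cells were grown in 96-well plates and exposed to each compound for 48 hours at five concentrations; endpoints were interpolated linearly between bracketing concentrations, or set to the highest concentration if not reached. GI50 marks 50% less growth. TGI marks complete inhibition of growth.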
Columns and labels:
Experiment in all cases: NCI anticancer screen, dose series, 48 h
BT-549 breast = test system: BT-549 breast
CAKI-1 renal = test system: CAKI-1 renal
HCC-2998 colon = test system: HCC-2998 colon
HL-60(TB) leukemia = test system: HL-60(TB) leukemia
K-562 leukemia = test system: K-562 leukemia
M14 melanoma = test system: M14 melanoma
MALME-3M melanoma = test system: MALME-3M melanoma
MDA-MB-435 = test system: MDA-MB-435
SK-MEL-28 melanoma = test system: SK-MEL-28 melanoma
EKVX NSCLC = test system: EKVX NSCLC

| Compound | GI50 (BT-549 breast) [µM] | TGI (BT-549 breast) [µM] | GI50 (CAKI-1 renal) [µM] | TGI (CAKI-1 renal) [µM] | GI50 (HCC-2998 colon) [µM] | TGI (HCC-2998 colon) [µM] | GI50 (HL-60(TB) leukemia) [µM] | TGI (HL-60(TB) leukemia) [µM] | GI50 (K-562 leukemia) [µM] | TGI (K-562 leukemia) [µM] | GI50 (M14 melanoma) [µM] | TGI (M14 melanoma) [µM] | GI50 (MALME-3M melanoma) [µM] | TGI (MALME-3M melanoma) [µM] | GI50 (MDA-MB-435) [µM] | TGI (MDA-MB-435) [µM] | GI50 (SK-MEL-28 melanoma) [µM] | TGI (SK-MEL-28 melanoma) [µM] | TGI (EKVX NSCLC) [µM] | GI50 (EKVX NSCLC) [µM] |
| --- | --- | --- | --- | --- | --- | --- | --- | --- | --- | --- | --- | --- | --- | --- | --- | --- | --- | --- | --- | --- |
| Cc1ccc(C2=NN(c3ccc(S(=O)(=O)NC(=O)NCc4ccccc4)cc3)C(c3ccc(N(C)C)cc3)C2)c(C)c1 (configuration not stated) | 3.94 | 19.9 | 3.45 | 87.1 | 2.45 | 5.65 | 3.02 | 11.9 | 3.51 | > 100 | 3.57 | 23.4 | 2.9 | 9.14 | 2.51 | 7.08 | 2.36 | 6.89 | – | – |
| Nc1c(C(=O)Nc2cccc(Cl)c2)sc2nc3c(cc12)C(O)CCC3 (configuration not stated) | 3.14 | 38.5 | 0.432 | 30.4 | 2.39 | 25.7 | 0.234 | 0.821 | 0.207 | 22.9 | 0.367 | > 49.7 | 0.485 | 33.3 | 0.121 | 0.408 | 3.02 | 59 | – | – |
| O=C(O)CN1C(=O)OC(c2ccccc2)C1=O (configuration not stated) | – | > 100 | – | > 100 | – | – | – | > 100 | – | > 100 | – | > 100 | – | > 100 | – | > 100 | – | > 100 | > 100 | – |
| O=S(=O)(NCCNc1nccc(-c2c(-c3ccc(F)cc3)nc3sccn23)n1)c1ccc(O)cc1 | 3.14 | 19.1 | 4.07 | 48.3 | 15.5 | 51.1 | 4.93 | 30.5 | 2.18 | > 100 | 3.36 | 18.1 | 3.92 | 21.5 | 1.07 | 14.8 | 4.4 | 37.8 | – | – |
| CC(=O)Oc1ccc(C2OC(c3ccc4ccccc4c3OC(C)=O)=NN2C(C)=O)c(OC(C)=O)c1 (configuration not stated) | 0.841 | 76.3 | 0.24 | 5.44 | 0.427 | 29 | 0.267 | 4.82 | 0.402 | > 48.6 | 0.368 | > 45.6 | 0.407 | 5.12 | 0.638 | > 65 | 0.559 | > 53.9 | – | – |
| CCOC(=O)c1c(C)n([O-])c2cc(F)c(F)cc2[n+]1=O | 1.84 | 3.64 | 1.63 | 3.04 | – | – | 0.105 | – | 0.697 | > 20.4 | 1.09 | 2.58 | 0.717 | 1.83 | 1.56 | 3.11 | 1.24 | 2.58 | 3.98 | 1.96 |
| N#CC1=C(N)N=C(N2CCOCC2)C(C#N)C12Nc1ccccc1S2 (configuration not stated) | 23.3 | 60.6 | 12.6 | 44.4 | – | – | 51 | > 100 | 26.7 | > 100 | 35 | 65.4 | – | – | 22.9 | 61.1 | – | – | 15.6 | 1.7 |

Reference: PubChem BioAssay (NCI)
